Assays:
CT26-induced tumors [1] = assay: Tumor histology; conditions: tumor tissue, day 21
MTT cytotoxicity assay = type: cell-based; conditions: human, HFF cells
[2] = Kidney histology in colon cancer model; conditions: kidney tissue, day 21
CT26-induced tumors [3] = assay: Colon cancer model, tumor weight and size after 21 days; conditions: intravenous every three days
[4] = Blood parameters in colon cancer model

In the case of `O=c1[nH]cc(F)c(=O)[nH]1` [Free 5FU, 5-Fluorouracil], the “Number of Apoptotic Cells (per field of view) ± Standard Deviation” value (CT26-induced tumors [1]) was 8.0 ± 1.0 per field of view, the “Other Histopathology Changes” value (CT26-induced tumors [1]) was “Mild necrotic changes and inflammation” and the “Percentage of Necrosis ± Standard Deviation” value (CT26-induced tumors [1]) was 18.0 ± 4.0%. The “Tumor Differentiation Grade (1 to 3) ± Standard Deviation” value (CT26-induced tumors [1]) was 2.0 ± 0.3, the viability at 24 h, 0.2 mg/mL (MTT cytotoxicity assay) was 99.5% and the viability at 24 h, 0.5 mg/mL (MTT cytotoxicity assay) was 87.9%. It also gave a viability at 24 h, 1 mg/mL (MTT cytotoxicity assay) of 85.9%, a viability at 24 h, 1.5 mg/mL (MTT cytotoxicity assay) of 75.9% and a viability at 24 h, 2 mg/mL (MTT cytotoxicity assay) of 75.1%. For the same compound, the viability at 48 h, 0.2 mg/mL (MTT cytotoxicity assay) was 104%, the viability at 48 h, 0.5 mg/mL (MTT cytotoxicity assay) was 94.1% and the viability at 48 h, 1 mg/mL (MTT cytotoxicity assay) was 79.4%. The viability at 48 h, 1.5 mg/mL (MTT cytotoxicity assay) was 74.7%, the viability at 48 h, 2 mg/mL (MTT cytotoxicity assay) was 65.1% and the “renal complications (kidney histology)” value [2] was “Most renal complications occurred in this group”. The “Mean tumor size ± standard deviation” value (CT26-induced tumors [3]) was 11.0 ± 2.0 mm, the “Mean tumor weight ± standard deviation” value (CT26-induced tumors [3]) was 0.98 ± 0.36 g and the “Red Blood Cell Count ± SD” value ([4]; Day 21) was 4.2 ± 0.3 ×10⁶ cells/µL. The “White Blood Cell Count ± SD” value ([4]; Day 21) was 10.0 ± 1.5 ×10³ cells/µL, the “Hemoglobin Level ± SD” value ([4]; Day 21, listed as 5-FU) was 9.0 ± 0.8 g/dL and the “Hemoglobin Level ± SD” value ([4]; Day 21, listed as free 5-FU) was 9.0 g/dL. For the same compound, the “Hemoglobin Level ± SD” value ([4]; Treatment start) was 12.8 ± 1.2 g/dL, the “Red Blood Cell Count ± SD” value ([4]; Treatment start) was 5.6 ± 0.5 ×10⁶ cells/µL and the “White Blood Cell Count ± SD” value ([4]; Treatment start) was 8.3 ± 1.1 ×10³ cells/µL.
